Assay results: paper PMC12008195 (Scientific Reports, 2025)

Assays:
HepG-2 cells [1] = test: Annexin-V/propidium iodide staining assay; assay type: cell-based, human
[2] = test system: HCT-116 (human colon cancer); conditions: read-out: IC50 HCT-116; MTT, 24-hour exposure; cited from earlier work
[3] = test system: HepG2 (hepatocellular carcinoma); conditions: read-out: IC50 HepG-2; MTT, 24-hour exposure; cited from earlier work
HepG-2 cells [4] = test: Cell cycle analysis, propidium iodide flow cytometry; assay type: cell-based, human; conditions: 3b at 6 µM
[5] = cited from earlier work
[6] = test system: MCF-7 (mammary gland breast cancer); conditions: read-out: IC50 MCF-7; MTT, 24-hour exposure; cited from earlier work
Bcl-2 = test: RT-PCR gene expression of Bcl-2 in HepG-2 cells; assay type: cell-based, human; conditions: versus untreated cells
[7] = test system: WI-38 (human lung fibroblasts); conditions: read-out: IC50 WI-38 human fibroblasts; MTT, normal non-cancer cells; cited from earlier work

For `Cc1cc2c(cc1C)N[C@H](c1ccccc1)[C@@H](O)C(=O)N2` [Compound 3b, (3R,4R)−3-hydroxy-7,8-dimethyl-4-phenyl-1,3,4,5-tetrahydro-2 H-1,5-benzodiazepin-2-one], the “Fold increase in the proportion of necrotic cells versus control” value (HepG-2 cells [1]) is listed as 2.6 fold, the IC50 [2] is listed as 9.18 µM and the IC50 [3] is listed as 6.13 µM. For the same molecule, the “Increase of DNA content at G2/M phase compared to non-treated cells” value (HepG-2 cells [4]) was 28%, the “Lipinski's rule of five” value ([5]; MW ≤ 500 Da, LogP < 5, nHBD ≤ 5, nHBA ≤ 10, TPSA < 140 Å2) was “satisfied” and the Predicted oral bioavailability ([5]; in silico studies) was “good”. For the same molecule, the IC50 [6] was 7.86 µM, the “Gene expression fold change Bcl-2” value (Bcl-2) was 0.339 fold and the IC50 [7] was 14 µM.
